Measured values reported in ChEMBL document CHEMBL3885861, “Open TG-GATES”.

Organism: Rattus norvegicus
Experiment: Open TG-GATES - Regimen: Single
Format: toxicity, organism-based, Sprague-Dawley
Set-up: regimen Single, gender Male, age 6 weeks
Conditions: in vivo, po, 0 mg/kg, route gavage, dose level Control; for APTT / Bas / Eos / Fbg / Hb / Ht / Lym / MCH / MCHC / MCV / Mono / Neu / PT / Plat / RBC / Ret / WBC: tissue Blood; for LIVER: tissue Liver; for A/G / ALP / ALT / AST / BUN / CRE / Ca / Cl / DBIL / GLC / IP / K / LDH / Na / PL / RALB / TBIL / TC / TG / TP / gamma-GTP: tissue Plasma

C=C(C)[C@H]1Cc2c(ccc3c2O[C@@H]2COc4cc(OC)c(OC)cc4[C@@H]2C3=O)O1 [ROTENONE]
TERMINAL_BW (3 h): 198.4 g | APTT (3 h): 15 s | Bas (3 h): 0% | Eos (3 h): 1% | Fbg (3 h): 207.8 mg/dL | Hb (3 h): 12.6 g/dL | Ht (3 h): 38.3% | Lym (3 h): 76.8% | MCH (3 h): 21 pg | MCHC (3 h): 33% | MCV (3 h): 63.7 fL | Mono (3 h): 5% | Neu (3 h): 17.6% | PT (3 h): 12.1 s | Plat (3 h): 131.6 x10_4/uL | RBC (3 h): 601.6 x10_4/ul | Ret (3 h): 9.8% | WBC (3 h): 98.8 x10_2/uL | LIVER (3 h): 9.4 g | A/G (3 h): 2.3 | ALP (3 h): 1432.2 IU/L | ALT (3 h): 35.8 IU/L | AST (3 h): 70.6 IU/L | BUN (3 h): 12.8 mg/dL | CRE (3 h): 0.3 mg/dL | Ca (3 h): 11 mg/dL | Cl (3 h): 104.6 meq/L | DBIL (3 h): 0.01 mg/dL | GLC (3 h): 188.2 mg/dL | IP (3 h): 8.3 mg/dL | K (3 h): 4.4 meq/L | LDH (3 h): 80.6 IU/L | Na (3 h): 140.4 meq/L | PL (3 h): 139.6 mg/dL | RALB (3 h): 3.7 g/dL | TBIL (3 h): 0.04 mg/dL | TC (3 h): 82.8 mg/dL | TG (3 h): 61.2 mg/dL | TP (3 h): 5.3 g/dL | gamma-GTP (3 h): 1 IU/L | TERMINAL_BW (6 h): 197 g | APTT (6 h): 15.9 s | Bas (6 h): 0% | Eos (6 h): 1% | Fbg (6 h): 218 mg/dL | Hb (6 h): 13.2 g/dL | Ht (6 h): 40.3% | Lym (6 h): 72.2% | MCH (6 h): 21.2 pg | MCHC (6 h): 32.8% | MCV (6 h): 64.5 fL | Mono (6 h): 9% | Neu (6 h): 17.6% | PT (6 h): 12.1 s | Plat (6 h): 122.2 x10_4/uL | RBC (6 h): 625.8 x10_4/ul | Ret (6 h): 8.1% | WBC (6 h): 92.8 x10_2/uL | LIVER (6 h): 8.7 g | A/G (6 h): 2.3 | ALP (6 h): 1181 IU/L | ALT (6 h): 35.4 IU/L | AST (6 h): 67 IU/L | BUN (6 h): 9.6 mg/dL | CRE (6 h): 0.4 mg/dL | Ca (6 h): 10.9 mg/dL | Cl (6 h): 103.4 meq/L | DBIL (6 h): 0.01 mg/dL | GLC (6 h): 181.8 mg/dL | IP (6 h): 9 mg/dL | K (6 h): 4.4 meq/L | LDH (6 h): 87 IU/L | Na (6 h): 139.2 meq/L | PL (6 h): 139.8 mg/dL | RALB (6 h): 3.8 g/dL | TBIL (6 h): 0.048 mg/dL | TC (6 h): 81.8 mg/dL | TG (6 h): 82.8 mg/dL | TP (6 h): 5.4 g/dL | gamma-GTP (6 h): 0.4 IU/L | TERMINAL_BW (9 h): 190.2 g | APTT (9 h): 16 s | Bas (9 h): 0% | Eos (9 h): 1% | Fbg (9 h): 209 mg/dL | Hb (9 h): 13 g/dL | Ht (9 h): 39.4% | Lym (9 h): 74.4% | MCH (9 h): 21.4 pg | MCHC (9 h): 32.9% | MCV (9 h): 64.8 fL | Mono (9 h): 8.4% | Neu (9 h): 16.6% | PT (9 h): 12.2 s | Plat (9 h): 123.2 x10_4/uL | RBC (9 h): 609 x10_4/ul | Ret (9 h): 9.2% | WBC (9 h): 95 x10_2/uL | LIVER (9 h): 8 g | A/G (9 h): 2.5 | ALP (9 h): 1388.2 IU/L | ALT (9 h): 33.6 IU/L | AST (9 h): 64.4 IU/L | BUN (9 h): 9.8 mg/dL | CRE (9 h): 0.3 mg/dL | Ca (9 h): 11 mg/dL | Cl (9 h): 104.2 meq/L | DBIL (9 h): 0.01 mg/dL | GLC (9 h): 182.2 mg/dL | IP (9 h): 10.2 mg/dL | K (9 h): 4.1 meq/L | LDH (9 h): 74.6 IU/L | Na (9 h): 140 meq/L | PL (9 h): 134.2 mg/dL | RALB (9 h): 3.8 g/dL | TBIL (9 h): 0.05 mg/dL | TC (9 h): 81.4 mg/dL | TG (9 h): 42.2 mg/dL | TP (9 h): 5.3 g/dL | gamma-GTP (9 h): 1 IU/L | TERMINAL_BW (24 h): 212.6 g | APTT (24 h): 15.6 s | Bas (24 h): 0% | Eos (24 h): 1% | Fbg (24 h): 220.6 mg/dL | Hb (24 h): 12.6 g/dL | Ht (24 h): 38.4% | Lym (24 h): 69% | MCH (24 h): 21.6 pg | MCHC (24 h): 32.8% | MCV (24 h): 65.9 fL | Mono (24 h): 9.8% | Neu (24 h): 20% | PT (24 h): 12 s | Plat (24 h): 131.2 x10_4/uL | RBC (24 h): 582.6 x10_4/ul | Ret (24 h): 8.3% | WBC (24 h): 108.8 x10_2/uL | LIVER (24 h): 10.1 g | A/G (24 h): 2.5 | ALP (24 h): 1476.8 IU/L | ALT (24 h): 48 IU/L | AST (24 h): 75.8 IU/L | BUN (24 h): 18 mg/dL | CRE (24 h): 0.4 mg/dL | Ca (24 h): 11.5 mg/dL | Cl (24 h): 103.8 meq/L | DBIL (24 h): 0.014 mg/dL | GLC (24 h): 181.6 mg/dL | IP (24 h): 7.2 mg/dL | K (24 h): 4.8 meq/L | LDH (24 h): 93.8 IU/L | Na (24 h): 139 meq/L | PL (24 h): 148.4 mg/dL | RALB (24 h): 3.9 g/dL | TBIL (24 h): 0.042 mg/dL | TC (24 h): 81.2 mg/dL | TG (24 h): 123.6 mg/dL | TP (24 h): 5.5 g/dL | gamma-GTP (24 h): 0.6 IU/L
